Experimental data from paper PMC8048860 (Chemmedchem, 2020).

How the values were obtained:
[1] = system: T. cruzi (Tulahuen strain, DTU VI) expressing beta-galactosidase; assay: T. cruzi growth inhibition assay; type: cell-based, Trypanosoma cruzi; details: read-out: T. cruzi EC50; averages of triplicate data; 3T3 host cells, 6 days
[2] = system: human hepatocellular cells (HepG2); assay: Mammalian cell growth inhibition assay, HepG2; type: cell-based; details: for EC50: HepG2, 48 h, read-out: Hep G2 EC50
[3] = system: human lymphocytic cells (CRL-8155); assay: Mammalian cell growth inhibition assay, CRL-8155; type: cell-based; details: for EC50: CRL8155, 48 h, read-out: CLR‐8155 EC50

EC50 [2] [µM]	EC90 ([2]; HepG2, read-out: Hep G2 EC90 (control compound)) [µM]	Structure (SMILES)	EC50 [1] [µM]	EC50 [3] [µM]	EC90 ([3]; CRL8155, read-out: CRL‐8155 EC90 (control compound)) [µM]
		Cc1ccc2nc(-c3ccc(F)c(F)c3)c(CN3CCN(C4CCCCC4)CC3)n2c1 [Compound 37]	2.6		
> 50		Cc1ccc2nc(-c3ccc(F)c(F)c3)c(CN3CCC(Cc4ccccc4)CC3)n2c1 [Compound 39]	1.6	> 50	
14.3	18.7	CCN(CC)CCCC(C)Nc1c2ccc(Cl)cc2nc2ccc(OC)cc12 (centres unmarked) [Quinacrine]		5.47	15.7
